Where two headings read alike, the source gives them in different places. Numbered stars: 1 amine (or outer) side, 2 acyl side, 3 side chain; on linkers, the order of the positions; unused ones are H or OH. Square brackets hold non-standard residues; d marks the D form. Peptide text beside a SMILES is read from it. * marks the point of attachment. X1 = N=c1ccc2c(-c3ccc(C(=O)*)cc3C(=O)O)c3ccc(N)c(S(=O)(=O)O)c3oc-2c1S(=O)(=O)O; γGlu = O=C(O)[C@H](CCC(=O)[*:2])N[*:1]
How the values were obtained:
[1] = system: colon-like Caco-2 BBE cell monolayers; experiment: Apical-to-basolateral transcytosis of fluorescence-labelled ligands across Transwell monolayers; assay type: in vitro ADME, human; settings: colon-like Caco-2 BBE monolayers on Transwell, A-B, 700 nM ligand apical, control conditions (no hNGAL), fluorescence read-out; means ± SEM, n = 9-14
Procedure: For transyctosis studies Costar Transwell® culture inserts placed on 24-well plates were used (0.4 µM PE membrane, 0.33 cm^2 filter area. Corning Inc., Corning, NY, USA). Briefly, 1.3 ml of Caco-2 BBE medium with 10% FBS was added to the basolateral compartment and Caco-2 BBE colon-like cells were plated at a density of 5 x 10^4 cells/insert in 400 µl medium with 10% FBS added to the apical compartment. The transepithelial electrical resistance (TEER) across the cell monolayer was measured after 0, 24, 48, 72 h culture as well as before and after each experiment. The medium was replaced after 48 h on both, top (apical) and bottom (basolateral) compartments of the culture inserts. […] Before each experiment, the apical medium was replaced by 400 µl medium containing 1% FBS medium and the appropriate fluorescence-labelled ligand at a final concentration of 700 nM with or without 500 pM hNGAL whereas the basolateral medium with 10% FBS remained unchanged. At each experimental time point, 10 µl of the basolateral and the apical medium was removed, frozen at -80° C and subsequently analyzed for fluorescence intensity using standard capillaries in a Monolith NT.015 (NanoTemper Technologies GmbH, Munich, Germany). Data were quantified by semi-logarithmic plotting against standards obtained from stock solutions of fluorescent ligands. […]

[2] = system: colon-like Caco-2 BBE cells; experiment: Internalization of fluorescence-labelled ligands, immunofluorescence microscopy; assay type: cell-based, human; settings: for Kd: 24 h, up to 5.6 µM A488-PC3, FBS-free medium, 5-6 experiments
Procedure: The full-length clone of rat r24p3-R was transiently transfected into CHO cells 24 h after seeding using Lipofectamine 2000, as described previously. Forty eight hours after transfection, r24p3-R- and empty vector (pcDNA3.1)-transfected cells were incubated for 24 h with 0-2.8 µM A488-PC3, as described previously for A546-MT [24]. Colon- or duodenum-like Caco-2 BBE cells were seeded at a density of 50,000 cells/coverslip and grown for 48 h before addition of different concentrations of A488-PC3 or A546-MT ± hNGAL for 24 h in FBS-free medium. Cells were stained with primary α-NT-24p3-R antibody (1:100) and secondary Cy3-coupled anti-rabbit IgG (1:600) for A488-PC3 uptake or with A546-conjugated anti-rabbit IgG (1:600) for A546-MT uptake.
For each experiment, 5-10 images were acquired and quantified as described earlier. For determination of r24p3-R-dependent fluorescence uptake in CHO cells, values in vector-transfected cells were subtracted from values obtained in the corresponding r24p3-R-transfected cells. […] To determine hNGAL-R-specific uptake of fluorescent dye-labeled proteins in Caco-2 BBE cells 5 images of fields with clusters of hNGAL-R expressing Caco-2 BBE cells and 5 images of clusters of Caco-2 BBE cells not expressing hNGAL-R were analyzed in the absence or presence of the ligand of the hNGAL-R, hNGAL/lipocalin-2 (500 pM).
Unless otherwise indicated, the experiments were repeated at least three times and means ± S.D. were calculated, unless otherwise indicated. Analysis by unpaired Student’s t test or one-way ANOVA assuming equality of variance with Newman-Keuls Multiple Comparison test and Dunnett’s post-hoc test was performed with GraphPad Prism 5.0. […] Transcytosis data fitted using a one-phase exponential decay function. All curve fits were done with GraphPad Prism 5.0. Results with P < 0.05 were considered to be statistically significant.

Molecule | basolateral delivery (AUC over 8 h) [1] | Kd ([2]; read-out: first app KD of A488-PC3 internalization (two-site binding fit)) | Kd ([2]; read-out: second app KD of A488-PC3 internalization (two-site binding fit)) | effect of 500 pM hNGAL on uptake of 0.7 µM ligand ([2]; 24 h incubation, 0.7 µM ligand with 500 pM hNGAL, 4-5 experiments)
N=c1ccc2c(-c3ccc(C(=O)N[C@@H](CCC(=O)N[C@@H](CS)C(=O)N[C@@H](CCC(=O)N[C@@H](CS)C(=O)N[C@@H](CCC(=O)N[C@@H](CS)C(=O)NCC(=O)O)C(=O)O)C(=O)O)C(=O)O)cc3C(=O)O)c3ccc(N)c(S(=O)(=O)O)c3oc-2c1S(=O)(=O)O [A488-PC3] ({X1-γGlu}-C[γGlu]C[γGlu]CG-OH; N-terminus and C-terminus assumed) | 299.4 ± 18.7 nM x 8 h | ~90 nM | ~300 nM | significantly reduced
A546-Tf: Alexa Fluor 546-labelled transferrin from human serum (Molecular Probes) | 402.4 ± 28.0 nM x 8 h |  |  | 
